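Values below derive from 48-hour exposures of cells grown in 96-well plates, with endpoints linearly interpolated between the two concentrations bracketing the appropriate inhibition level. TGI: total growth inhibition.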

In PubChem BioAssay (NCI) one finds TGI data, which are given here for 18 compounds.

Test systems include IGROV1 ovarian; NCI-H23 lung; UO-31 renal; A498 renal; BT-549 breast; CCRF-CEM leukemia; COLO 205 colon; 786-0 renal; CAKI-1 renal; SF-295 CNS.
What all share (assay): NCI tumour cell line growth inhibition, 48 h

For the compound `OC1(c2ccccc2)CCN(Cc2c[nH]c3ccccc23)CC1`, the TGI in the experiment on IGROV1 ovarian, with NCI-H23 lung, with UO-31 renal, with A498 renal, in the experiment with BT-549 breast and with CCRF-CEM leukemia was more than 100 µM each time. In addition, the TGI was 31.7 µM with COLO 205 colon, more than 100 µM with 786-0 renal, more than 100 µM with CAKI-1 renal and more than 100 µM in the experiment with SF-295 CNS.
For the compound `COC(=O)C1CCC(=S)N1C(=O)c1ccccc1` (stereo not given), the TGI in the experiment with IGROV1 ovarian, in the experiment on NCI-H23 lung, in the experiment on UO-31 renal, in the experiment on A498 renal, in the experiment on BT-549 breast and with CCRF-CEM leukemia was more than 100 µM each time. Besides, the TGI in the experiment with COLO 205 colon, with 786-0 renal, in the experiment with CAKI-1 renal and in the experiment on SF-295 CNS was more than 100 µM each time.
Turning to `COc1ccc(CC(N)c2ccc(OC)cc2)cc1` (stereo not given), the TGI in the experiment on IGROV1 ovarian, in the experiment with NCI-H23 lung, in the experiment with UO-31 renal, in the experiment with A498 renal, in the experiment on BT-549 breast and with CCRF-CEM leukemia was more than 100 µM in each case. Also, the TGI is 36.9 µM in the experiment with COLO 205 colon, more than 100 µM in the experiment with 786-0 renal, more than 100 µM in the experiment on CAKI-1 renal and more than 100 µM with SF-295 CNS.
With `O=C1C[C@@H](C(=O)OCc2ccccc2)NC(=O)C[C@@H](C(=O)OCc2ccccc2)NC(=O)C[C@@H](C(=O)OCc2ccccc2)N1`, the TGI in the experiment with IGROV1 ovarian was more than 100 µM; with NCI-H23 lung it was more than 100 µM; in the experiment on UO-31 renal it was more than 100 µM; in the experiment with A498 renal it was more than 95.1 µM; in the experiment on BT-549 breast it was more than 100 µM; with CCRF-CEM leukemia, 2.01 µM. Also, the TGI in the experiment with COLO 205 colon, in the experiment with 786-0 renal, with CAKI-1 renal and in the experiment with SF-295 CNS was more than 100 µM each time.
Turning to `Cc1csc(NC23CC4CC(CC(C4)C2)C3)[n+]1C(P(=O)([O-])O)P(=O)(O)O` (stereo not given), the TGI in the experiment with IGROV1 ovarian, with NCI-H23 lung, in the experiment with UO-31 renal, in the experiment with A498 renal, with BT-549 breast and with CCRF-CEM leukemia was more than 100 µM throughout. The TGI with COLO 205 colon, with 786-0 renal, in the experiment on CAKI-1 renal and in the experiment with SF-295 CNS was more than 100 µM each time.
Regarding `CC(=O)NCCC1CN(C(=O)/C=C/I)c2ccccc21` (stereo not given), the TGI with IGROV1 ovarian was 18.7 µM; in the experiment on NCI-H23 lung it was 25.6 µM; in the experiment on UO-31 renal, 6.85 µM; in the experiment with A498 renal, 17.5 µM; in the experiment with BT-549 breast it was 10.8 µM; in the experiment with CCRF-CEM leukemia, more than 38.6 µM. The TGI was 14.1 µM in the experiment on COLO 205 colon, 3.11 µM in the experiment on 786-0 renal, 9.03 µM in the experiment on CAKI-1 renal and 28.9 µM with SF-295 CNS.
With `COC(=O)C1(Cc2ccc3c(c2)CCC3)Cc2ccccc2C1O` (stereo not given), the TGI stood at 51.7 µM in the experiment with IGROV1 ovarian; 45 µM with NCI-H23 lung; 29.2 µM in the experiment with UO-31 renal; 33.7 µM in the experiment on A498 renal; 35.1 µM in the experiment with BT-549 breast; 47.5 µM in the experiment on CCRF-CEM leukemia. Moreover, the TGI with COLO 205 colon was 33.8 µM; in the experiment on 786-0 renal, 32.4 µM; in the experiment on CAKI-1 renal, 52.3 µM; with SF-295 CNS, 35.2 µM.
For `C[C@H](NC(=O)C(Cc1ccccc1)(Cc1ccc(O)cn1)NC(=O)c1ccccc1)c1ccccc1` (stereo not given in full), the TGI in the experiment with IGROV1 ovarian was 37 µM; with NCI-H23 lung it was 50.5 µM; with UO-31 renal, 29.1 µM; in the experiment on A498 renal it was 33.5 µM; with BT-549 breast, 36.9 µM; with CCRF-CEM leukemia it was more than 100 µM. The TGI in the experiment with COLO 205 colon turned out to be 35.1 µM; in the experiment on 786-0 renal, 31.3 µM; in the experiment on CAKI-1 renal it was 90.5 µM; in the experiment with SF-295 CNS, 29 µM.
In the case of `O=C(NCCCCCCCCCCCCNC(=O)Nc1cccc2ccccc12)Nc1cccc2ccccc12`, the TGI with IGROV1 ovarian is 36.3 µM; in the experiment on NCI-H23 lung it was 31.5 µM; in the experiment on UO-31 renal, 33.9 µM; with A498 renal, 31.7 µM; in the experiment on BT-549 breast, 31.4 µM; with CCRF-CEM leukemia, 33.4 µM. Besides, the TGI in the experiment with COLO 205 colon was 44.1 µM; in the experiment on 786-0 renal, 32.2 µM; in the experiment with CAKI-1 renal, 31.7 µM; in the experiment on SF-295 CNS, 27.7 µM.
`ClCCCc1ccccc1C1=NCCc2ccccc21`: the TGI in the experiment on IGROV1 ovarian, in the experiment on NCI-H23 lung, in the experiment on UO-31 renal, in the experiment on A498 renal, with BT-549 breast and with CCRF-CEM leukemia was more than 100 µM in each case. For the same compound, the TGI is 52.9 µM in the experiment with COLO 205 colon, more than 100 µM with 786-0 renal, more than 100 µM with CAKI-1 renal and more than 100 µM in the experiment with SF-295 CNS.
For the compound `CSCSSC`, the TGI with IGROV1 ovarian, in the experiment on NCI-H23 lung, with UO-31 renal, in the experiment with A498 renal, in the experiment on BT-549 breast and in the experiment with CCRF-CEM leukemia was more than 100 µM throughout. Moreover, the TGI with COLO 205 colon, in the experiment with 786-0 renal, in the experiment with CAKI-1 renal and in the experiment on SF-295 CNS was more than 100 µM each time.
Turning to `COc1cccc(CCN2CCN(CCCc3ccccc3)CC2)c1`, the TGI in the experiment on IGROV1 ovarian, in the experiment on NCI-H23 lung, in the experiment with UO-31 renal, in the experiment on A498 renal, in the experiment with BT-549 breast and in the experiment with CCRF-CEM leukemia was more than 100 µM each time. Also, the TGI in the experiment on COLO 205 colon is 45.2 µM; in the experiment with 786-0 renal, more than 100 µM; in the experiment with CAKI-1 renal it was more than 100 µM; in the experiment on SF-295 CNS it was more than 100 µM.
Consider `Cc1ccc(/C(O)=C/c2nc3ccccc3sc2=O)c(C)c1`, for which the TGI with IGROV1 ovarian was more than 100 µM; with NCI-H23 lung it was more than 100 µM; with UO-31 renal it was more than 100 µM; in the experiment with A498 renal it was more than 100 µM; in the experiment with BT-549 breast, 79.6 µM; in the experiment on CCRF-CEM leukemia it was more than 100 µM. Further, the TGI in the experiment on COLO 205 colon, with 786-0 renal, with CAKI-1 renal and in the experiment with SF-295 CNS was more than 100 µM throughout.
Regarding `Cc1ccc([S@](=O)c2occc2C=O)cc1`, the TGI in the experiment on IGROV1 ovarian stood at 31.2 µM; in the experiment with NCI-H23 lung it was 30.4 µM; in the experiment on UO-31 renal, 23.2 µM; in the experiment on A498 renal, 32.3 µM; in the experiment on BT-549 breast it was 25.5 µM; with CCRF-CEM leukemia it was 4.4 µM. The TGI with COLO 205 colon was found to be 28.9 µM; with 786-0 renal, 11.3 µM; in the experiment with CAKI-1 renal, 30.7 µM; with SF-295 CNS, 32.4 µM.
In the case of `CCNC(=S)N=Nc1c(O)[nH]c2ccc([N+](=O)[O-])cc12`, the TGI with IGROV1 ovarian is more than 100 µM; in the experiment on NCI-H23 lung it was more than 100 µM; in the experiment on UO-31 renal it was more than 100 µM; in the experiment on A498 renal, 89.3 µM; in the experiment on BT-549 breast, more than 100 µM; with CCRF-CEM leukemia, more than 100 µM. The TGI with COLO 205 colon was more than 100 µM; in the experiment on 786-0 renal it was 69 µM; in the experiment on CAKI-1 renal, more than 100 µM; in the experiment on SF-295 CNS, more than 100 µM.
With `O=[N+]([O-])c1ccc2sc(C=Nc3cnccn3)cc2c1`, the TGI in the experiment with IGROV1 ovarian is more than 100 µM; in the experiment with NCI-H23 lung, more than 100 µM; in the experiment with UO-31 renal it was more than 100 µM; in the experiment on A498 renal it was 86 µM; in the experiment with BT-549 breast it was more than 100 µM; in the experiment on CCRF-CEM leukemia it was 40.4 µM. Also, the TGI in the experiment on COLO 205 colon, in the experiment on 786-0 renal, in the experiment on CAKI-1 renal and in the experiment with SF-295 CNS was more than 100 µM each time.
On to `C[N+](C)(C)c1ccc(C(N)C(=O)O)cc1` (stereo not given), for which the TGI with IGROV1 ovarian, with NCI-H23 lung, with UO-31 renal, in the experiment on A498 renal, with BT-549 breast and in the experiment with CCRF-CEM leukemia was more than 100 µM throughout. Also, the TGI in the experiment with COLO 205 colon, with 786-0 renal, in the experiment on CAKI-1 renal and in the experiment with SF-295 CNS was more than 100 µM in each case.
As for `COC(OC)[C@@H]1OC[C@H](n2cnc3c(N)ncnc32)[C@H]1O`, the TGI in the experiment on IGROV1 ovarian, with NCI-H23 lung, in the experiment with UO-31 renal, in the experiment on A498 renal, with BT-549 breast and in the experiment on CCRF-CEM leukemia was more than 100 µM in each case. The TGI in the experiment with COLO 205 colon, in the experiment on 786-0 renal, in the experiment on CAKI-1 renal and in the experiment on SF-295 CNS was more than 100 µM throughout.
